This data set relates to CCRIS mutagenicity, Ames/micronucleus/aberration tests. In words: CCRIS mutagenicity studies.
The mark [1] stands for this setting: Test System: AMES SALMONELLA TYPHIMURIUM, Strain/Indicator: TA98, Metabolic Activation: HAMSTER, LIVER, S-9, AROCLOR 1254, Method: PREINCUBATION
Where [2] appears, read: Test System: AMES SALMONELLA TYPHIMURIUM, Strain/Indicator: TA98, Metabolic Activation: NONE, Method: PREINCUBATION
Setting [3] is: Test System: AMES SALMONELLA TYPHIMURIUM, Strain/Indicator: TA98, Metabolic Activation: RAT, LIVER, S-9, AROCLOR 1254, Method: PREINCUBATION
The mark [4] stands for this setting: Test System: AMES SALMONELLA TYPHIMURIUM, Strain/Indicator: TA100, Metabolic Activation: HAMSTER, LIVER, S-9, AROCLOR 1254, Method: PREINCUBATION
Where [5] appears, read: Test System: AMES SALMONELLA TYPHIMURIUM, Strain/Indicator: TA100, Metabolic Activation: NONE, Method: PREINCUBATION
Setting [6] is: Test System: AMES SALMONELLA TYPHIMURIUM, Strain/Indicator: TA100, Metabolic Activation: RAT, LIVER, S-9, AROCLOR 1254, Method: PREINCUBATION
[7] abbreviates: Test System: AMES SALMONELLA TYPHIMURIUM, Strain/Indicator: TA1535, Metabolic Activation: HAMSTER, LIVER, S-9, AROCLOR 1254, Method: PREINCUBATION
[8] abbreviates: Test System: AMES SALMONELLA TYPHIMURIUM, Strain/Indicator: TA1535, Metabolic Activation: NONE, Method: PREINCUBATION
Setting [9] is: Test System: AMES SALMONELLA TYPHIMURIUM, Strain/Indicator: TA1535, Metabolic Activation: RAT, LIVER, S-9, AROCLOR 1254, Method: PREINCUBATION
[10] abbreviates: Test System: AMES SALMONELLA TYPHIMURIUM, Strain/Indicator: TA1537, Metabolic Activation: HAMSTER, LIVER, S-9, AROCLOR 1254, Method: PREINCUBATION
Where [11] appears, read: Test System: AMES SALMONELLA TYPHIMURIUM, Strain/Indicator: TA1537, Metabolic Activation: NONE, Method: PREINCUBATION
Where [12] appears, read: Test System: AMES SALMONELLA TYPHIMURIUM, Strain/Indicator: TA1537, Metabolic Activation: RAT, LIVER, S-9, AROCLOR 1254, Method: PREINCUBATION

Activity calls are given as the source filed them. No rule for the calls is given here.

As to `C=CCc1ccc(OC)c(OC)c1`, the mutagenic call is “inactive; negative” under setting [1]; “inactive; negative” under setting [2]; “inactive; negative” under setting [3]; “inactive; negative” under setting [4]; “inactive; negative” under setting [5]; “inactive; negative” under setting [6]. Besides, the mutagenic call is “inactive; negative” under setting [7]; “inactive; negative” under setting [8]; “inactive; negative” under setting [9]; “inactive; negative” under setting [10]; “inactive; negative” under setting [11]; “inactive; negative” under setting [12].
For `OC1c2ccc3c(c2C2OC2C1O)-c1cccc2cccc-3c12` (configuration not stated), the mutagenic call runs as follows: (Test System: AMES SALMONELLA TYPHIMURIUM, Strain/Indicator: TA97A, Metabolic Activation: NONE, Method: PREINCUBATION) “active; positive”; under setting [2], “active; positive”; under setting [5], “active; positive”.
Turning to `[U]`, the mutagenic call (End Point: In vitro chromosomal aberrations, Test System: Human colon tumor line LT97, Metabolic Activation: None, Method: 24 color FISH) is “active; positive (breaks at tumor-relevant chromosomes 5, 12, and 17); uranium and nitri”.
`C=CC1CC=CCC1` (configuration not stated): the mutagenic call was “inactive; negative” (Test System: AMES SALMONELLA TYPHIMURIUM, Strain/Indicator: TA98, Metabolic Activation: HAMSTER, LIVER, S-9, AROCLOR 1254 (10%), Method: PREINCUBATION); “inactive; negative” under setting [1]; “inactive; negative” under setting [2]; “inactive; negative” (Test System: AMES SALMONELLA TYPHIMURIUM, Strain/Indicator: TA98, Metabolic Activation: RAT, LIVER, S-9, AROCLOR 1254 (10%), Method: PREINCUBATION); “inactive; negative” under setting [3]; “inactive; negative” (Test System: AMES SALMONELLA TYPHIMURIUM, Strain/Indicator: TA100, Metabolic Activation: HAMSTER, LIVER, S-9, AROCLOR 1254 (10%), Method: PREINCUBATION). The mutagenic call reads like this: under setting [4], “inactive; negative”; under setting [5], “inactive; negative”; (Test System: AMES SALMONELLA TYPHIMURIUM, Strain/Indicator: TA100, Metabolic Activation: RAT, LIVER, S-9, AROCLOR 1254 (10%), Method: PREINCUBATION) “inactive; negative”; under setting [6], “inactive; negative”; (Test System: AMES SALMONELLA TYPHIMURIUM, Strain/Indicator: TA1535, Metabolic Activation: HAMSTER, LIVER, S-9, AROCLOR 1254 (10%), Method: PREINCUBATION) “inactive; negative”; under setting [7], “inactive; negative”. The mutagenic call is “inactive; negative” under setting [8]; “inactive; negative” (Test System: AMES SALMONELLA TYPHIMURIUM, Strain/Indicator: TA1535, Metabolic Activation: RAT, LIVER, S-9, AROCLOR 1254 (10%), Method: PREINCUBATION); “inactive; negative” under setting [9]; “inactive; negative” (Test System: AMES SALMONELLA TYPHIMURIUM, Strain/Indicator: TA1537, Metabolic Activation: HAMSTER, LIVER, S-9, AROCLOR 1254 (10%), Method: PREINCUBATION); “inactive; negative” under setting [10]; “inactive; negative” under setting [11]. In addition, the mutagenic call reads like this: (Test System: AMES SALMONELLA TYPHIMURIUM, Strain/Indicator: TA1537, Metabolic Activation: RAT, LIVER, S-9, AROCLOR 1254 (10%), Method: PREINCUBATION) “inactive; negative”; under setting [12], “inactive; negative”.
Take `C=CCNc1ccccc1.C=CCNc1ccccc1.C=CCNc1ccccc1.[Cl-].[Cl-].[Rh].[Rh]`: the mutagenic call (Test System: AMES SALMONELLA TYPHIMURIUM, Strain/Indicator: TA92, Metabolic Activation: NONE, Method: STANDARD PLATE) is “inactive; negative”.
For the compound `Cn1cnc2c(N)ncnc21`, the mutagenic call was “inactive; negative” (Test System: AMES SALMONELLA TYPHIMURIUM, Strain/Indicator: TA97, Metabolic Activation: NONE, Method: STANDARD PLATE); “inactive; negative” (Test System: AMES SALMONELLA TYPHIMURIUM, Strain/Indicator: TA97, Metabolic Activation: RAT, LIVER, S-9, AROCLOR 1254, Method: STANDARD PLATE); “inactive; negative” (Test System: AMES SALMONELLA TYPHIMURIUM, Strain/Indicator: TA98, Metabolic Activation: NONE, Method: STANDARD PLATE); “active; positive” (Test System: AMES SALMONELLA TYPHIMURIUM, Strain/Indicator: TA98, Metabolic Activation: RAT, LIVER, S-9, AROCLOR 1254, Method: STANDARD PLATE); “inactive; negative” (Test System: AMES SALMONELLA TYPHIMURIUM, Strain/Indicator: TA100, Metabolic Activation: NONE, Method: STANDARD PLATE); “inactive; negative” (Test System: AMES SALMONELLA TYPHIMURIUM, Strain/Indicator: TA100, Metabolic Activation: RAT, LIVER, S-9, AROCLOR 1254, Method: STANDARD PLATE).
In the case of `C=CCOC(=O)c1ccccc1C(=O)OCC=C`, the mutagenic call by setting is: (End Point: IN VITRO CHROMOSOMAL ABERRATIONS, Test System: CHO CELLS, Metabolic Activation: RAT, LIVER, S-9, AROCLOR 1254) “active; positive; weak response”; under setting [1], “inactive; negative”; under setting [2], “inactive; negative”; (Test System: AMES SALMONELLA TYPHIMURIUM, Strain/Indicator: TA98, Metabolic Activation: RAT LIVER S-9, PHENOBARBITAL AND BETA-NAPHTHOFLAVONE, Method: PREINCUBATION) “inactive; negative”; under setting [3], “inactive; negative”; under setting [4], “inactive; negative”. Further, the mutagenic call reads like this: under setting [5], “inactive; negative”; (Test System: AMES SALMONELLA TYPHIMURIUM, Strain/Indicator: TA100, Metabolic Activation: RAT LIVER S-9, PHENOBARBITAL AND BETA-NAPHTHOFLAVONE, Method: PREINCUBATION) “inactive; negative”; under setting [6], “inactive; negative”; under setting [7], “inactive; negative”; under setting [8], “inactive; negative”; (Test System: AMES SALMONELLA TYPHIMURIUM, Strain/Indicator: TA1535, Metabolic Activation: RAT LIVER S-9, PHENOBARBITAL AND BETA-NAPHTHOFLAVONE, Method: PREINCUBATION) “inactive; negative”. Further, the mutagenic call is, setting by setting: under setting [9], “inactive; negative”; under setting [10], “inactive; negative”; under setting [11], “inactive; negative”; (Test System: AMES SALMONELLA TYPHIMURIUM, Strain/Indicator: TA1537, Metabolic Activation: RAT LIVER S-9, PHENOBARBITAL AND BETA-NAPHTHOFLAVONE, Method: PREINCUBATION) “inactive; negative”; under setting [12], “inactive; negative”; (Test System: E.COLI, Strain/Indicator: WP2UVRA/PKM101, Metabolic Activation: NONE, Method: PREINCUBATION) “inactive; negative”. The mutagenic call (Test System: E.COLI, Strain/Indicator: WP2UVRA/PKM101, Metabolic Activation: RAT LIVER S-9, PHENOBARBITAL AND BETA-NAPHTHOFLAVONE, Method: PREINCUBATION) is “inactive; negative”.

The record behind these values is PubChem BioAssay AID1259407 (Chemical Carcinogenesis Research Information System (CCRIS), 2018).
